Data: ChEMBL document CHEMBL5674860, “Optimized Dual-Glo Assay to identify co-culture-induced drug vulnerabilities in 3D CRC models” (2024)

Legend:
Assay type in all cases: functional, Homo sapiens
Set-up in all cases: dose or concentration left out as unconfirmed
[1] = tested on: Colon cancer organoid; assay: Optimized Dual-Glo assay to identify co-culture induced drug vulnerabilities using donated chemical probes and chemogenomics kinase set in O06 CRC organoid and F06 CAF mono and co-culture. […] Cell viability is reported both mono and co-culture models.
[2] = tested on: Colon cancer organoid; assay: Optimized Dual-Glo assay to identify co-culture induced drug vulnerabilities using donated chemical probes and chemogenomics kinase set in O14 CRC organoid and F14 CAF mono and co-culture. […] Cell viability is reported both mono and co-culture models.
[3] = tested on: Colon cancer organoid; assay: Optimized Dual-Glo assay to identify co-culture induced drug vulnerabilities using donated chemical probes and chemogenomics kinase set in O20 CRC organoid and F20 CAF mono and co-culture. […] Cell viability is reported both mono and co-culture models.
[4] = Culture type Co-Culture, Transduced with Lucferase2-P2A-EGFP lentivirus
[5] = Culture type Co-Culture, Transduced with Renilla-dsRed lentivirus
[6] = Culture type Mono-Culture, Transduced with Lucferase2-P2A-EGFP lentivirus
[7] = Culture type Mono-Culture, Transduced with Renilla-dsRed lentivirus

| Compound | Cell Viability [1, 4] | Cell Viability [1, 5] | Cell Viability [1, 6] | Cell Viability [1, 7] | Cell Viability [2, 4] | Cell Viability [2, 5] | Cell Viability [2, 6] | Cell Viability [2, 7] | Cell Viability [3, 4] | Cell Viability [3, 5] | Cell Viability [3, 6] | Cell Viability [3, 7] |
| --- | --- | --- | --- | --- | --- | --- | --- | --- | --- | --- | --- | --- |
| CCOc1ccn(-c2ccc(F)cc2)c(=O)c1C(=O)Nc1ccc(Oc2ccnc(N)c2Cl)c(F)c1 [BMS-777607] | 91.8113% | 94.0587% | 160.363% | 101.253% | 80.1334% | 87.7624% | 119.97% | 83.2963% | 100.473% | 72.8578% | 109.106% | 74.8704% |
| O=c1nc(-c2ccccn2)sc2ccccc12 [BTZO-1] | 150.72% | 152.299% | 108.701% | 93.9423% | 72.8422% | 97.4125% | 100.899% | 88.8475% | 113.092% | 104.485% | 93.617% | 87.2617% |
| O=C1NC(c2ccccn2)Sc2ccccc21 (stereo unspecified) [BTZO-4] | 120.289% | 168.274% | 120.842% | 96.0026% | 61.6346% | 107.214% | 121.016% | 104.244% | 109.35% | 85.8309% | 124.511% | 93.402% |
| C=CC(=O)Nc1ccc2[nH]c(=O)n(C3CCN(Cc4ccc(-c5nc6cc[nH]c(=O)c6cc5-c5ccccc5)cc4)CC3)c2c1 [Borussertib] | 51.8578% | 132.383% | 55.1299% | 71.4174% | 51.6115% | 159.043% | 54.7811% | 69.4418% | 47.4641% | 149.193% | 22.6881% | 97.2977% |
| O=C(NOCC1CC1)c1ccc(F)c(F)c1Nc1ccc(I)cc1Cl [CI-1040] | 38.2974% | 73.8424% | 7.023% | 67.7326% | 16.7737% | 86.2158% | 10.461% | 42.9063% | 43.8229% | 195.336% | 27.7103% | 59.0843% |
| O=C(c1ccc(F)c(F)c1Nc1ccc(I)cc1F)N1CC(O)([C@@H]2CCCCN2)C1 [COBIMETINIB] | 5.143% | 42.4292% | 6.053% | 35.0976% | 2.787% | 24.389% | 1.583% | 12.612% | 4.023% | 77.761% | 4.662% | 37.2771% |
| COc1c(OCCCN2CCOCC2)ccc2c1N=C(NC(=O)c1cnc(N)nc1)N1CCN=C21 [COPANLISIB] | 1.487% | 40.0213% | 1.127% | 24.3347% | 3.879% | 63.1617% | 2.323% | 50.5605% | 2.276% | 117.524% | 0.6907% | 109.388% |
| COCC(=O)NC/C=C/c1ccc2ncnc(Nc3ccc(Oc4ccc(C)nc4)c(C)c3)c2c1 [CP-724714] | 64.178% | 58.1065% | 46.8341% | 91.801% | 60.8642% | 107.55% | 48.0446% | 87.9569% | 97.3561% | 94.0282% | 76.6577% | 85.6537% |
| CN([C@@H]1CCc2c(CC(=O)O)c3cc(S(C)(=O)=O)ccc3n2C1)S(=O)(=O)c1ccc(F)cc1 [CRTH2-negative-control] | 107.688% | 114.368% | 103.342% | 104.475% | 89.9276% | 115.062% | 117.685% | 97.6178% | 107.561% | 126.69% | 138.147% | 108.987% |
| CNC(=O)c1ccc(Nc2ncc(C(F)(F)F)c(NCc3nccnc3N(C)S(C)(=O)=O)n2)cc1 [DEFACTINIB] | 127.858% | 116.047% | 102.967% | 60.766% | 83.442% | 104.135% | 42.8527% | 104.257% | 57.0475% | 79.7534% | 66.5234% | 63.7293% |
| CCN(CCO)CCCOc1ccc2c(Nc3cc(CC(=O)Nc4cccc(F)c4)[nH]n3)ncnc2c1 [DEFOSBARASERTIB] | 10.7234% | 183.999% | 3.3988% | 94.753% | 15.638% | 174.95% | 26.1499% | 95.9515% | 5.365% | 225.013% | 11.3206% | 105.29% |
| Cn1c(C2(NC(=O)c3ccc4c(C5CCCC5)c(-c5ncc(Br)cn5)n(C)c4c3)CCC2)nc2ccc(/C=C/C(=O)O)cc21 [DELEOBUVIR] | 116.632% | 84.3073% | 123.499% | 101.583% | 94.147% | 102.969% | 81.1663% | 89.5103% | 79.9036% | 130.288% | 108.218% | 110.732% |
| CN1CCN(Cc2ccc(Nc3ncc(Cl)c(Nc4ccccc4S(=O)(=O)N(C)C)n3)cc2)CC1 [DUBERMATINIB] | 0.5937% | 0.7151% | 0.6913% | 2.891% | 0.6117% | 1.021% | 1.267% | 1.499% | 1.045% | 16.1981% | 1.218% | 12.0094% |
| Cn1cc(C2=C(c3cn(C4CCN(Cc5ccccn5)CC4)c4ccccc34)C(=O)NC2=O)c2ccccc21 [ENZASTAURIN] | 65.6638% | 92.7001% | 58.602% | 101.572% | 77.4844% | 94.2381% | 86.5336% | 83.0179% | 54.9568% | 78.6109% | 53.3905% | 66.2903% |
| C[C@H](NC(=O)Nc1cc2[nH]ncc2c(CO)n1)c1ccccn1 [ERKi-NC] | 88.473% | 87.7291% | 101.937% | 116.172% | 88.9935% | 102.074% | 55.928% | 92.432% | 108.541% | 124.126% | 136.018% | 90.7734% |
| C[C@@H](NC(=O)Nc1cc2[nH]ncc2c(CO)n1)c1ccccc1 [ERKi] | 117.766% | 104.277% | 23.2555% | 96.7542% | 33.887% | 108.528% | 11.5857% | 66.9878% | 50.0756% | 135.339% | 64.2382% | 68.0141% |
| O=C(Nc1nc2cccc(-c3ccc(CN4CCS(=O)(=O)CC4)cc3)n2n1)C1CC1 [FILGOTINIB] | 100.525% | 92.8016% | 121.161% | 92.1067% | 124.013% | 111.823% | 119.446% | 102.655% | 112.545% | 86.0918% | 106.088% | 87.0807% |
| CN(C(=O)c1ccccc1)c1cc(N(C)c2ccc3c(c2)CCc2ccc(C(=O)NCCN4CCOCC4)cc2C3=O)ccc1F [FM-743] | 67.0526% | 69.6878% | 72.1659% | 109.641% | 83.789% | 122.182% | 115.906% | 98.7995% | 87.5807% | 153.202% | 104.972% | 128.329% |
